Measurements from US12115208B2, “Small-molecule adjuvants for antibiotics to address antibiotic resistance” (HIGH POINT UNIVERSITY, priority 2017, dated 2024).

Key:
[1] = system: various S. aureus strains; assay: microbe, parasite or virus in culture; conditions: Staphylococcus aureus, read-out: MICs
S. aureus ATCC 29213 = assay: Minimum inhibitory concentration, broth microdilution; assay type: cell-based; conditions: Staphylococcus aureus, ATCC29213; compound alone; S. aureus ATCC 29213; CAMHB, 18 h; read-out: MIC
Method: (§1) The compounds were then analyzed for antibiotic repotentiation activity. […] The tested strains included USA300, which is a common and particularly virulent strain of community-acquired MRSA.

S. aureus USA300 (MRSA) [2] = assay: Antibiotic repotentiation (antibiotic MIC with/without compound); assay type: cell-based, Staphylococcus aureus; conditions: +50 μM compound, S. aureus USA300 (MRSA)
S. aureus 43300 (MRSA) = assay: as above; assay type: cell-based, Staphylococcus aureus; conditions: +50 μM compound
S. aureus USA100 biofilm = assay: Biofilm inhibition, crystal violet assay; assay type: cell-based; conditions: Staphylococcus aureus, S. aureus USA100 (MRSA), 30 h
Method: (§2) A standard static crystal violet assay was used to quantify biofilm inhibition.^45 Cultures of S. aureus or S. epidermidis were grown overnight in TSBG (tryptic soy broth with 5% glucose) at 37° C. with shaking. These cultures were used to inoculate fresh TSBG to a calculated optical density of 0.01 at 600 nm (OD600). […] Untreated aliquots were used as a positive control and water served as a negative control. 100 μl of these suspensions were added to the wells of a 96-well polyvinylchloride microtiter plate. […] After incubation, media was discarded and the plates were washed with water to remove non-adherent cells. Adherent biofilms were stained with 110 μl of crystal violet (0.1% in water) and incubated at room temperature for thirty minutes. The crystal violet staining solution was discarded and plates were washed with water to remove excess stain. The resulting stained biofilms were solubilized with 200 μL of 95% ethanol for 10 minutes. 125 μl of the ethanol solutions were transferred to a clear polystyrene microtiter plate for evaluation. Absorbance at 540 nm was recorded using a BioTek Synergy H1 microplate reader. The absorbance of the negative control lanes was subtracted from the experimental values to account for background staining. Percent inhibition was calculated by comparison of the absorbance values of control versus treated wells under identical conditions.
(§3) Antibiotic resistance and biofilm formation share similar regulatory mechanisms. […] Biofilm inhibition was first assessed in S. aureus 43300, a methicillin-resistant strain (see Table 18). As described in Materials and Methods, a standard crystal violet assay was used to assess biofilm inhibition by the tested compounds. The IC50 is described as the compound concentration required to inhibit 50% of biofilm formation. The standard deviation is calculated from at least 3 independent experiments.
(§4) The biofilm inhibition activity of loratadine was further explored in other strains of S. aureus. Loratadine was capable of inhibiting biofilm formation in all tested strains of S. aureus, including methicillin-resistant and vancomycin-resistant strains.

[3] = system: S. aureus NR-49120 biofilm; assay: Biofilm inhibition, crystal violet assay; assay type: cell-based; conditions: Staphylococcus aureus, NR49120BIOFILM, S. aureus NR-49120 (methicillin and vancomycin resistant), 30 h
Method: as §2, §3, §4

S. aureus 29213 biofilm = assay: Biofilm inhibition, crystal violet assay; assay type: cell-based; conditions: Staphylococcus aureus, 30 h
Method: as §2, §3, §4

S. aureus USA300 biofilm = assay: Biofilm inhibition, crystal violet assay; assay type: cell-based; conditions: Staphylococcus aureus, S. aureus USA300 (MRSA), 30 h
Method: as §2, §3, §4

[4] = system: S. aureus NR-50109 biofilm; assay: Biofilm inhibition, crystal violet assay; assay type: cell-based; conditions: Staphylococcus aureus, NR50109BIOFILM, S. aureus NR-50109 (methicillin and vancomycin resistant), 30 h
Method: as §2, §3, §4

S. epidermidis 49461 = assay: Antibiotic repotentiation (oxacillin MIC with/without compound); assay type: cell-based, Staphylococcus epidermidis; conditions: +50 μM compound, S. epidermidis 49461
Method: (§5) The overnight culture was diluted into fresh CAMHB to a concentration of 5×10^5 CFU/ml. […] On the same plate, a standard microdilution MIC with the tested antibiotics and no added compound was also performed to compare the antibiotic MIC in the presence and absence of compound. […] Fold reductions were calculated by dividing the MIC of the antibiotic without compound by the MIC of the antibiotic in the presence of compound.
Antibiotic potentiation in S. epidermidis was also investigated.

[5] = system: S. aureus NR-49120 (VRSA); assay: microbe, parasite or virus in culture; conditions: Staphylococcus aureus, 18 h
Method: Minimum inhibitory concentrations were determined using a standard serial broth microdilution method. […] Mid-log-phase cultures were diluted to a concentration of approximately 5×10^5 CFU/ml in cation-adjusted Mueller-Hinton broth (CAMHB). Wells 2-11 of a 96-well polyvinylchloride microtiter plate were inoculated with 100 μl of bacterial suspension. 100 μl of uninnoculated CAMHB was added to well 12 to serve as a negative control. The top wells were inoculated with 200 μl of bacterial suspension with either antibiotics or compounds added. Serial dilutions were performed in wells 2-10, leaving well 11 to serve as the positive control. The microtiter plates were covered with Press-n-Seal and incubated at 37° C. for 18 hours without agitation. Plates were scored by visual detection of well turbidity.

S. aureus USA100 (MRSA) [6] = assay: microbe, parasite or virus in culture; assay type: cell-based, Staphylococcus aureus; conditions: Staphylococcus aureus, compound alone, CAMHB, 18 h
MRSA 43300 biofilm = assay: Biofilm inhibition, crystal violet assay; assay type: cell-based, Staphylococcus aureus; conditions: 30 h
Method: as §2, §3

S. aureus USA300 (MRSA) [7] = assay: Minimum inhibitory concentration, broth microdilution; assay type: cell-based, Staphylococcus aureus; conditions: Staphylococcus aureus; compound alone; S. aureus USA300 (MRSA); CAMHB, 18 h; read-out: MIC
Method: as §1

[8] = system: S. aureus ATCC 43300 (MRSA); assay: as above; assay type: cell-based, Staphylococcus aureus; conditions: Staphylococcus aureus; compound alone; S. aureus ATCC 43300 (MRSA); CAMHB, 18 h; read-out: MIC
Method: as §1

[9] = system: S. epidermidis ATCC 49461 biofilm; assay: Biofilm inhibition, crystal violet assay; assay type: cell-based, Staphylococcus epidermidis; conditions: Staphylococcus epidermidis, ATCC49461, 30 h, read-out: Inhibition of biofilm formation IC50
Method: as §2

S. aureus USA100 (MRSA) [10] = assay: Antibiotic repotentiation (antibiotic MIC with/without compound); assay type: cell-based, Staphylococcus aureus; conditions: +50 μM compound, S. aureus USA100 (MRSA)
Method: as §5

[11] = system: S. aureus NR-49120 (VRSA); assay: as above; assay type: cell-based, Staphylococcus aureus; conditions: +50 μM compound, S. aureus NR-49120 (VRSA)
Method: as §5

- MIC [1]: > 200 µM
- MIC (S. aureus ATCC 29213): > 200 µM
- Oxacillin MIC (S. aureus USA300 (MRSA) [2]): 0.5 µg/mL
- Oxacillin MIC (S. aureus 43300 (MRSA); S. aureus ATCC 43300 (MRSA)): 1 µg/mL
- IC50 (S. aureus USA100 biofilm): 22.2 ± 6.51 µM
- IC50 [3]: 59.9 ± 1.29 µM
- IC50 (S. aureus 29213 biofilm): 25.9 ± 2.36 µM
- IC50 (S. aureus USA300 biofilm): 32.8 ± 5.9 µM
- IC50 [4]: 19.1 ± 2.87 µM
- Oxacillin MIC (S. epidermidis 49461): 16 µg/mL
- MIC [5]: > 200 µM
- MIC (S. aureus USA100 (MRSA) [6]): > 200 µM
- IC50 (MRSA 43300 biofilm): 11.5 µM
- IC50 (MRSA 43300 biofilm; Staphylococcus aureus, MRSA): 11.4 µM
- MIC (S. aureus USA300 (MRSA) [7]): > 200 µM
- MIC [8]: > 200 µM
- IC50 [9]: 25.1 ± 3.65 µM
- Oxacillin MIC (S. aureus USA100 (MRSA) [10]): 0.5 µg/mL
- Oxacillin MIC [11]: 16 µg/mL
Structure (SMILES): CCOC(=O)N1CCC(=C2c3ccc(Cl)cc3CCc3cccnc32)CC1 [Loratadine, ethyl 4-(8-chloro-5,6-dihydrobenzo[1,2]cyclohepta[2,4-b]pyridin-11-ylidene)piperidine-1-carboxylate]
- Fold Reduction (S. aureus USA300 (MRSA) [2]; oxacillin MIC): 64
- Fold Reduction (S. aureus 43300 (MRSA); oxacillin MIC, S. aureus 43300 (MRSA)): 32
- Fold Reduction (S. epidermidis 49461; oxacillin MIC): 1
- Fold Reduction (S. aureus USA100 (MRSA) [10]; oxacillin MIC): 512
- Fold Reduction ([11]; oxacillin MIC): 8
